Square brackets hold non-standard residues; d marks the D form. Peptide text beside a SMILES is read from it. * marks the point of attachment. Dolaproine = CO[C@@H]([C@@H]1CCCN1)[C@@H](C)C(=O)O; Dil = CC[C@H](C)[C@H](NC)[C@@H](CC(=O)O)OC; X1 = C[C@@H](N*)[C@@H](O)c1ccccc1; NMeV = CN[C@H](C(=O)O)C(C)C
Experiments:
[1] = EV-203 pharmacokinetics of ADC, TAb and free MMAE in serum or plasma; assay type: in vivo, human; conditions: for Time of peak free MMAE concentration postinfusion: after end of enfortumab vedotin infusion
Experimental: In the PK cohort (i.e., PK analysis set), intensive PK sampling was performed wherein blood samples for analysis of ADC, total antibody (TAb), and free (unconjugated) MMAE were collected at prespecified time points. […] Blood samples for antitherapeutic antibodies (ATAs) were collected predose on Day 1 of cycles 1 to 4, 6, 8, 10, and within 30–37 days after the last study dose. Validated assays were used to measure concentrations of ADC, TAb, and free MMAE in serum or plasma and to assess ATA levels.
All patients who received any amount of study drug were included in the primary analyses of efficacy endpoints and safety analyses. The PK analyses included data from patients in the PK cohort who received at least 3 of 4 doses of the study drug through cycle 2 Day 1 and had at least five blood samples collected and assayed for measurements of ADC, TAb, or free MMAE concentrations to determine at least one PK parameter.

[2] = test system: patients with HER2-positive (IHC2+ or 3+) unresectable locally advanced or mUC; parameters: method as in earlier work; conditions: pooled two phase 2 studies, combined N = 107; 95% CI 40.6%–60.3%; cited from earlier work
[3] = cycle 1 Day 1, Non-PK cohort, mean (SD)
[4] = cycle 1 Day 1, PK cohort, mean (SD)
[5] = cycle 1 Day 8, Non-PK cohort, mean (SD)
[6] = cycle 1 Day 8, PK cohort, mean (SD)
[7] = cycle 1 Day 15, Non-PK cohort, mean (SD)
[8] = cycle 1 Day 15, PK cohort, mean (SD)
[9] = plasma, Cycle 1 Day 15, third to first dose, mean (SD)

Question: Which “Serum concentration at end of infusion” value [1, 3] does the source give for “TAb: total antibody analyte measured in serum after enfortumab vedotin dosing” here?
Answer: The value was 29,100 (5050) [23] ng/mL.

Question: And the “Serum concentration at end of infusion” value [1, 4]?
Answer: The value was 30,800 (5730) [13] ng/mL.

Question: What about the “Serum concentration at end of infusion” value [1, 5] of the same molecule?
Answer: Its value is 29,900 (5450) [17] ng/mL.

Question: And the “Serum concentration at end of infusion” value [1, 6]?
Answer: Its value is 34,300 (6640) [12] ng/mL.

Question: What about the “Serum concentration at end of infusion” value [1, 7] of the same molecule?
Answer: The value was 27,600 (6210) [11] ng/mL.

Question: What about the “Serum concentration at end of infusion” value [1, 8] of the same molecule?
Answer: The value was 33,600 (5450) [10] ng/mL.

Question: And the “AUC0–7d” value ([1]; serum, Cycle 1 Day 1, PK cohort, 1.25 mg/kg IV, mean (SD))?
Answer: Its value is 77.4 (17.3) day μg/mL.

Question: What about the C max ([1]; serum, Cycle 1 Day 1, PK cohort, mean (SD)) of the same molecule?
Answer: The C max was 31.7 (5.73) μg/mL.

Question: And the “AUC0–7d” value ([1]; serum, Cycle 1 Day 15, PK cohort, 1.25 mg/kg IV, mean (SD))?
Answer: Its value is 94.7 (15.7) day μg/mL.

Question: What about the C max ([1]; serum, Cycle 1 Day 15, PK cohort, mean (SD)) of the same molecule?
Answer: Its C max is 34.4 (4.64) μg/mL.

Question: What about the “Time of peak serum concentration” value ([1]; serum, PK cohort cycle 1) of the same molecule?
Answer: The value was “at the end of the enfortumab vedotin infusion”.

Question: Which “Plasma concentration at end of infusion” value [1, 3] does the source give for `CC[C@H](C)[C@@H]([C@@H](CC(=O)N1CCC[C@H]1[C@H](OC)[C@@H](C)C(=O)N[C@H](C)[C@@H](O)c1ccccc1)OC)N(C)C(=O)[C@@H](NC(=O)[C@@H](NC)C(C)C)C(C)C` [Free MMAE, monomethyl auristatin E] (H-[NMeV]V[Dil][Dolaproine]-X1) here?
Answer: The value was 376 (241) [23] pg/mL.

Question: What about the “Plasma concentration at end of infusion” value [1, 4] of the same molecule?
Answer: Its value is 357 (154) [13] pg/mL.

Question: And the “Plasma concentration at end of infusion” value [1, 5]?
Answer: Its value is 2720 (1490) [17] pg/mL.

Question: And the “Plasma concentration at end of infusion” value [1, 6]?
Answer: Its value is 1680 (1290) [12] pg/mL.

Question: What about the “Plasma concentration at end of infusion” value [1, 7] of the same molecule?
Answer: The value was 3350 (2600) [11] pg/mL.

Question: What about the “Plasma concentration at end of infusion” value [1, 8] of the same molecule?
Answer: The value was 2110 (1680) [10] pg/mL.

Question: And the “Median t max (range)” value ([1]; plasma, Cycle 1 Day 1)?
Answer: Its value is 2.00 (1.87–2.93) days.

Question: What about the “AUC0–7d” value ([1]; plasma, Cycle 1 Day 1, after enfortumab vedotin 1.25 mg/kg IV, mean (SD)) of the same molecule?
Answer: The value was 16.9 (9.2) day ng/mL.

Question: What about the C max ([1]; plasma, Cycle 1 Day 1, mean (SD)) of the same molecule?
Answer: Its C max is 3.3 (1.74) ng/mL.

Question: What about the “Median t max (range)” value ([1]; plasma, Cycle 1 Day 15) of the same molecule?
Answer: Its value is 1.93 (0.86–2.92) days.

Question: What about the “AUC0–7d” value ([1]; plasma, Cycle 1 Day 15, after enfortumab vedotin 1.25 mg/kg IV, mean (SD)) of the same molecule?
Answer: The value was 23.3 (16.4) day ng/mL.

Question: And the C max ([1]; plasma, Cycle 1 Day 15, mean (SD))?
Answer: The C max was 4.5 (3.58) ng/mL.

Question: What about the “R ac (AUC0–7d), accumulation ratio” value [1, 9] of the same molecule?
Answer: Its value is 1.32 (0.486).

Question: And the “R ac (Cmax), accumulation ratio” value [1, 9]?
Answer: The value was 1.28 (0.499).

Question: What about the “Time of peak free MMAE concentration postinfusion” value ([1]; plasma, listed as MMAE) of the same molecule?
Answer: Its value is “approximately 2 days”.

Question: And the “Time of peak free MMAE concentration postinfusion” value ([1]; plasma, listed as free MMAE)?
Answer: The value was 2 to 3 days.

Question: What about the “Mean accumulation ratios (third to first dose) for maximum concentration and AUC0–7d” value ([1]; range over ADC, TAb and free MMAE, repeat dosing) of the same molecule?
Answer: The value was 1.03 to 1.32.

B1: disitamab vedotin (conjugate, chains of the INN, looked up)
VH: EVQLVQSGAEVKKPGATVKISCKVSGYTFTDYYIHWVQQAPGKGLEWMGRVNPDHGDSYYNQKFKDKATITADKSTDTAYMELSSLRSEDTAVYFCARNYLFDHWGQGTLVTVSS
VL: DIQMTQSPSSVSASVGDRVTITCKASQDVGTAVAWYQQKPGKAPKLLIYWASIRHTGVPSRFSGSGSGTDFTLTISSLQPEDFATYYCHQFATYTFGGGTKVEIK
modifications: vedotin (MMAE) payload
Question: With B1 as the molecule, how does the ORR [2] read?
Answer: Its ORR is 50.5%.
